Source: patent US12633373B2, “Systems and methods to predict structures and properties of biomolecule-ligand complexes and uses thereof” (The Board of Trustees of the Leland Stanford Junior …, priority 2020, dated 2026)

Tests used:
[1] = test system: D2 dopamine receptor (D2R) S193 mutants (Val, Leu, Ala); test: Mutagenesis of Ser193 (S193) of D2R, ligand affinity; format: binding; conditions: S193 mutated to a larger residue (Val or Leu)
Text: (§1) To test the embodiment's predictions, mutagenesis experiments were designed.

[2] = biological target: D2 dopamine receptor (D2R) S193 mutants (Val, Leu, Ala) (Homo sapiens, UniProt P14416, S193A); test: as above; format: binding; conditions: S193 mutated to a smaller residue (Ala)
Text: as §1

[3] = test system: D2 dopamine receptor (D2R) Val91 and Trp100 mutants; test: Mutagenesis of Val91 and Trp100 of D2R, ligand affinity; conditions: mutation of Val91 and Trp100, top of the ligand binding pocket
Text: Mutations to several residues surrounding the top and bottom of the binding pocket were also considered. Unlike Glide, the embodiment predicts that all four ligands will position a fluorobenzene ring at the bottom of the binding pocket, packing favorably against Trp386 (W386). […] At the top of the ligand binding pocket, near Val91 and Trp100, the embodiment predicts that the pimozide and benperidol will place identical functional groups that differ somewhat from those of spiperone and mespiperone.

Sequence of D2 dopamine receptor (D2R) S193 mutants (Val, Leu, Ala) (Homo sapiens, UniProt P14416, S193A) (P14416 whole entry S193A): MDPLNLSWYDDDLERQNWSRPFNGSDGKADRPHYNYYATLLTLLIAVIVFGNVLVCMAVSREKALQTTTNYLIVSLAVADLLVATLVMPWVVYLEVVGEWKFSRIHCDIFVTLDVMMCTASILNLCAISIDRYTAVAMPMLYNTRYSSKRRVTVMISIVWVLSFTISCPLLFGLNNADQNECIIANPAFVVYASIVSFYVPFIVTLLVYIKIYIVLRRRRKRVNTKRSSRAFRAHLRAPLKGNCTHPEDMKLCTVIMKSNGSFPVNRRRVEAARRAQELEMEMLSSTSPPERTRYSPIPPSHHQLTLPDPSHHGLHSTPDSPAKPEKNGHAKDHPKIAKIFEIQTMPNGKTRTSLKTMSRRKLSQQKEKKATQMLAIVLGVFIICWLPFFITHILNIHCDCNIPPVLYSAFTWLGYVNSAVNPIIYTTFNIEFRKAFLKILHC

O=C(CCCN1CCC(n2c(O)nc3ccccc32)CC1)c1ccc(F)cc1 [benperidol]
change of affinity on mutation [1]: increases | change of affinity on mutation [2]: not observed | effect of mutation on ligand [3]: slightly differently from spiperone and mespiperone
